Experimental data: patent EP4778531A1, “MUSCLE RELAXANT ANTAGONIST FOR REVERSAL FOR BENZYLISOQUINOLINE MUSCLE RELAXANT” (priority 2023, dated 2025)

Experiments:
[1] = tested on: Hypersensitivity-Related Factors; test: Antibody array (Ary028 immune chip kit): hypersensitivity-related factors after repeated dosing; format: in vivo; details: ICR mice; tail vein once daily for 5 days; Adamgammadex sodium 1 g/kg, Sugammadex sodium 1 mg/kg, Neostigmine 0.3 mg/kg; pooled plasma of 2 mice; N.D. = below minimum detection limit
Method: (§1) An antibody array is a type of protein chip characterized by miniaturization, integration, and high throughput. It can be used to detect the expression abundance of proteins related to a specific physiological or pathological process. The principle involves arranging capture antibodies on a membrane or glass slide, incubating with the sample, adding biotin-labeled antibodies against the target proteins, and finally using HRP-streptavidin or fluorescein-streptavidin to detect the chip signal. Signals are detected using chemiluminescence or HiLyte™ Fluor 555-streptavidin.
(§2) In this experiment, ICR mice were randomly divided into a blank group, Adamgammadex sodium (1 g/kg) group, Sugammadex sodium (1 mg/kg) group, and Neostigmine (0.3 mg/kg) group, with 2 mice per group. Mice in each group given the corresponding dosage of compound via the tail vein once daily for 5 consecutive days. On the last day after administration, plasma from the 2 animals per group was mixed and detected using the Ary028 immune chip kit. Specific detection steps were as follows: • (1) Sample volume determination: 200 µL serum sample per Array unit. (2) Blocking protein chip: Each membrane was blocked with 2 mL of corresponding Array Buffer, incubated on a shaker for 1 hour. (3) Sample processing: Samples were diluted with corresponding Array Buffer to a volume of 1.5 mL per membrane, the corresponding Array unit was added, and incubated overnight with the Array protein membrane at 4°C. (4) Membranes were washed three times with corresponding Wash buffer, then diluted detection antibody was added and incubated at room temperature for 1 h. (5) Membranes were washed three times with corresponding Wash buffer, streptavidin-HRP was added and incubated for 30min at room temperature with shaking. (6) Membranes were washed three times with corresponding Wash buffer, 1 mL of chemiluminescent reagent was added to each well, and developed on a chemiluminescence imager. (7) Fluorescence intensity was used to represent the relative concentration of the corresponding protein.

[2] = tested on: Inflammation-Related Factors; format: in vivo, ICR mice; details: Adamgammadex sodium 1 g/kg, Sugammadex sodium 1 mg/kg, Neostigmine 0.3 mg/kg
Method: as §1, §2

[3] = tested on: cisatracurium-induced guinea pig muscle relaxation model; test: Antagonism of residual muscle relaxation after cisatracurium in anesthetized guinea pigs (TOF monitoring); format: in vivo, Hartley guinea pigs; details: positive control group, 0.0625 mg/kg i.v.
Method: Ninety (90) qualified Hartley guinea pigs, male, were used. Sixty (60) animals were randomly divided into 6 experimental groups based on body weight using a stratified random method: negative control group, positive control group, low-dose test group, medium-dose test group, high-dose test group, and combination group, with 10 animals per group (n=10). The remaining animals served as spares. The negative control group received 0.9% sodium chloride. The positive control group received 0.0625 mg/kg neostigmine methylsulfate (referred to as neostigmine). The low-dose test group received 10 mg/kg adamgammadex sodium. The medium-dose test group received 20 mg/kg adamgammadex sodium. The high-dose test group received 40 mg/kg adamgammadex sodium. The combination group received 10 mg/kg adamgammadex sodium and 0.03125 mg/kg neostigmine. The administration volume for all groups was 1 mL/kg.
Adaptive feeding was conducted after the quarantine period. On the day of the experiment, guinea pigs were weighed, administered atropine (0.1 mg/kg) intramuscularly, and then anesthetized with an intraperitoneal injection of anesthetic (pentobarbital sodium 10 mg/kg, urethane 1000 mg/kg). After fixation, the animals were intubated and connected to a small animal ventilator. Both external jugular veins and the right carotid artery were cannulated. The left jugular vein was used for cisatracurium infusion, the right jugular vein for injection of different test substances, and the carotid artery was connected to a multi-channel physiological signal acquisition and processing system for continuous monitoring of arterial blood pressure and heart rate. Electrode patches were subcutaneously placed behind the left femur and tibia of the guinea pig, and two stimulating electrodes of the neuromuscular monitor were fixed to the two electrode patches. The left hind paw was fixed on a custom-made platform. A sensor was fixed to the skin surface over the gastrocnemius muscle of the left hind limb, and a skin temperature probe was fixed to a flat area of skin. Continuous single-twitch stimulation was applied at 1 Hz. After the twitch height stabilized, the mode was switched to train-of-four stimulation (TOF mode, stimulus current 5 mA, frequency 2 Hz, pulse width 0.2 ms, interval between trains 15 s) for at least 5 min. Calibration was then performed using Calibration Mode 2, followed by TOF mode stimulation. After obtaining a stable stimulation response for at least 2 min, cisatracurium solution was infused intravenously using a dual-channel micro-infusion pump, and the start time of infusion was recorded. […] At this point, cisatracurium infusion was stopped. After stopping the infusion, neuromuscular function was allowed to recover spontaneously. When neuromuscular function reached moderate recovery, the test drug formulation was administered intravenously. Neuromuscular function was allowed to recover completely, and the administration time was recorded (Figure 1). Using the time of spontaneous recovery to moderate neuromuscular function (TOF50) as zero point, the times for recovery from TOF50 to TOF75, TOF75 to TOF90, and TOF50 to TOF90 were calculated for each animal (Table 1-2). Arterial blood pressure (systolic, diastolic, mean arterial pressure) and heart rate were recorded before cisatracurium infusion, at the time cisatracurium infusion was stopped, at the time of moderate neuromuscular recovery, and at the time of complete neuromuscular function recovery (Tables 3-7). Data were expressed as Mean ± SD. Statistical T-tests were performed using SPSS software to evaluate differences in blood pressure, heart rate, and residual neuromuscular blockade recovery times. P < 0.05 was considered statistically significant.

[4] = ICR mice, tail vein once daily for 5 days, pooled plasma of 2 mice, N.D. = below minimum detection limit

In the case of CN(C)C(=O)Oc1cccc([N+](C)(C)C)c1 [Neostigmine, neostigmine methylsulfate], the “Fluorescence Intensity CCL11 (Eosinophil activation chemokine)” value [1] is reported as 6286.81, the “Fluorescence Intensity CCL12 (Monocyte chemotactic receptor 5)” value [1] is reported as 5003.37 and the “Fluorescence Intensity GM-CSF (Granulocyte-macrophage colony-stimulating factor)” value [1] is reported as 1679.67. The “Fluorescence Intensity IL-1α (Interleukin 1α)” value [1] was 1891.15, the “Fluorescence Intensity IL-1β (Interleukin 1β)” value [1] was 1087.46 and the “Fluorescence Intensity IL-3 (Interleukin 3)” value [1] was 1133.66. The “Fluorescence Intensity IL-4 (Interleukin 4)” value [1] was 3939.66, the “Fluorescence Intensity IL-5 (Interleukin-5)” value [1] was 1864.09 and the “Fluorescence Intensity IL-6 (Interleukin-6)” value [1] was 2321.39. The “Fluorescence Intensity IL-15 (Interleukin-15)” value [1] was 1503.8, the “Fluorescence Intensity TNF-α (Tumor necrosis factor)” value [1] was 1116.77 and the “Fluorescence Intensity BAFF/BlyS/ TNFSF13B (B cell activation factor)” value [2, 4] was 12170.94. For the same compound, the “Fluorescence Intensity C-Reactive Protein/CRP (C-reactive protein)” value [2, 4] was 11999.12, the “Fluorescence Intensity CCL17/TARC (Thymus activation regulatory chemokine)” value [2, 4] was 3653.32 and the “Fluorescence Intensity CCL19/MIP 3β (Macrophage inflammatory protein 3β)” value [2, 4] was 3385.33. The “Fluorescence Intensity CCL20/MIP 3α (Macrophage inflammatory protein 3α)” value [2, 4] was 4440.55, the “Fluorescence Intensity CCL21/6Ckine (Lymphocyte chemokine CCL21)” value [2, 4] was 17119.34 and the “Fluorescence Intensity CCL22/MDC (Macrophage-derived chemokine)” value [2, 4] was 4762.19. For the same compound, the “Fluorescence Intensity CD160 (Leukocyte differentiation antigen160)” value [2, 4] was 4298.1, the “Fluorescence Intensity CX3CL1/ Gractalkine (Neural chemokine)” value [2, 4] was 2935.07 and the “Fluorescence Intensity CXCL1/KC (Neutrophil chemokine)” value [2, 4] was 2935.82. The “Fluorescence Intensity CXCL9/MIG (IFN-γ-induced monocyte factor)” value [2, 4] was 1730.04, the “Fluorescence Intensity CXCL10/IP-10 (Interferon-induced protein 10)” value [2, 4] was 1971.99 and the “Fluorescence Intensity CXCL11/I-TAC (Interferon-induced T cell chemokines)” value [2, 4] was 2397.51. The “Fluorescence Intensity CXCL13 (CXC family chemokine)” value [2, 4] was 3607.1, the “Fluorescence Intensity CXCL16 (CXC family chemokine)” value [2, 4] was 2426.598 and the “Fluorescence Intensity Chemerin (Chemotactic factor)” value [2, 4] was 7955.57. The “Fluorescence Intensity G-CSF (Granulocyte colony-stimulating factor)” value [2, 4] was 1289.56, the “Fluorescence Intensity IL-2 (Interleukin-2)” value [2, 4] was 1107.85 and the “Fluorescence Intensity IL-7 (Interleukin-7)” value [2, 4] was 3226.41. For the same compound, the “Fluorescence Intensity IL-10 (Interleukin-10)” value [2, 4] was 1601.99, the “Fluorescence Intensity IL-11 (Interleukin-11)” value [2, 4] was 2195.99 and the “Fluorescence Intensity IL-12p40 (Interleukin IL-12p40)” value [2, 4] was 2936.85. The “Fluorescence Intensity IL-13 (Interleukin-13)” value [2, 4] was 1609.58, the “Fluorescence Intensity IL-15 (Interleukin-15)” value [2, 4] was 1503.8 and the “Fluorescence Intensity IL-17A (Interleukin -17A)” value [2, 4] was 783.45. For the same compound, the “Fluorescence Intensity IL-22 (Interleukin-22)” value [2, 4] was 1253.05, the “Fluorescence Intensity IL-23 (Interleukin-23)” value [2, 4] was 1483.72 and the “Fluorescence Intensity IL-27p28 (Interleukin-27p28)” value [2, 4] was 1575.98. The “Fluorescence Intensity IL-28 (Interleukin-28)” value [2, 4] was 3505.78, the “Fluorescence Intensity IL-33 (Interleukin-33)” value [2, 4] was 1897.86 and the “Fluorescence Intensity M-CSF (Macrophage colony-stimulating factor)” value [2, 4] was 6478.33. The “Fluorescence Intensity Myeloperoxidase (Mastoperoxidase)” value [2, 4] was 6395.44, the “Fluorescence Intensity Pentraxin 3 (Pertussis toxin 3)” value [2, 4] was 3694.57 and the “Fluorescence Intensity TIM-1/KIM-1/ HAVCR (Hepatitis A virus receptor-1 (inflammation/ immunity))” value [2, 4] was 1197.17. For the same compound, the “impact on inducing immune inflammation in mice (in words)” value ([2]; conclusion from Tables 3 and 4) was “most severe impact”, the “Fluorescence Intensity M-CSF (Macrophage lysis-stimulating factor)” value ([2]; second M-CSF line of Table 4, ICR mice, tail vein once daily for 5 days, pooled plasma of 2 mice, N.D. = below minimum detection limit) was 6478.33 and the “Fluorescence Intensity Pentraxin 3/TSG-14 (Pertussis toxin 3)” value ([2]; second Pentraxin 3 line of Table 4, ICR mice, tail vein once daily for 5 days, pooled plasma of 2 mice, N.D. = below minimum detection limit) was 3694.57. For the same compound, the “Residual Muscle Relaxation Recovery Time Ratios RtTOF50-75/0-50” value [3] was 0.09±0.07, the “Residual Muscle Relaxation Recovery Time Ratios RtTOF50-90/0-50” value [3] was 0.18±0.09 and the “Residual Muscle Relaxation Recovery Time Ratios RtTOF75-90/0-50” value [3] was 0.09±0.07. For the same compound, the “Residual Muscle Relaxation Recovery Time tTOF50-75” value [3] was 101 ± 71 s, the “Residual Muscle Relaxation Recovery Time tTOF50-90” value [3] was 188 ± 86 s and the “Residual Muscle Relaxation Recovery Time tTOF75-90” value [3] was 87 ± 68 s. For the same compound, the “Residual Muscle Relaxation Recovery Time tTOF0-50” value ([3]; spontaneous recovery before administration) was 1134 ± 281 s and the “Degree of tTOF50-90 shortening” value ([3]; vs negative control group) was 58.7%.
